# Experimental data taken from patent US20230139328A1, “DOSAGE FORMS FOR IMPROVING ORGAN TRANSPLANTATION, GRAFT VERSUS HOST DISEASE AND STEM CELLS TRANSPLANTS” (Aphios Corporation, priority 2020, published 2023).
# “Also recorded” adds a separate entry of the source.
# How the values were obtained:
# transplanted kidney = assay: Porcine kidney auto-transplantation model (20 h cold storage, reperfusion); assay type: in vivo, German Landrace pigs; details: pig
# Experimental: We used the porcine kidney auto-transplantation model with the modified PET formulation of Bryostatin-1 in thirty-two female German Landrace pigs weighing 20 to 40 kg. Briefly, animals had surgery for graft retrieval followed by a standard graft cold storage time (CST) of 20 h. During CST, kidneys were preserved with histidine-tryptophan-ketoglutarate (HTK)-solution either supplemented with 100 nM Bryostatin-1 or an equivalent volume of placebo (PET formulation). Donor animals then had surgery again for renal auto-transplantation and the graft was transplanted orthotopically. Thus, the contralateral kidney was removed to measure specifically function of the transplanted kidney. Time of reperfusion was 8 h and sample collection included cortical renal biopsies, tissue block samples at the end of the study and blood as well as urine analyses.
# neutrophil migration = assay: Neutrophil migration induced by 24 h TNF-α pretreatment combined with a 100 nM LTB4 gradient; assay type: cell-based, human; details: 24 h TNF-α pretreatment and 100 nM LTB4 gradient; data not shown
# Experimental: Migration Assays: At confluency HMECs were treated for 1 h at 37° C. with Bryostatin-1 (10 nM, 100 nM) in MCDB-131 media or MCDB-131 media alone. Inserts were washed three times with Hank's Balanced Salt Solution (HBSS) (to eliminate drug effects on the neutrophils) and placed in a new plate containing either 500 μL 100 nM LTB4, or HBSS alone for control. 500 μL HBSS was then added to the top well and spiked with 500,000 neutrophils. For TNF-α experiments, HMECs were left in 20 ng/ml TNF-α in MCDB-131 for 24 h TNF-α was removed and HMECs washed three times. HMECs were treated for 1 h with Bryostatin-1 in endothelial growth medium (EGM) (10 nM, 100 nM). The drug was removed, and cells were washed three times. […] Neutrophils were allowed to migrate for 3 h at 37° C. Migration was stopped by removing the inserts and migration was measured using the myeloperoxidase (MPO) assay.
# Myeloperoxidase Assay: Neutrophil migration was measured using myeloperoxidase (MPO) analysis. […] The supernatant was removed, and MPO activity was measured using TMB/peroxide as chromogen. The reaction was stopped with sulfuric acid and absorbance was read at 450 nm using a microplate reader. […] Data was expressed as “% neutrophil migration”, which allowed cumulative statistical analysis to be done and account for unpreventable batch-to-batch variations.
# [1] = tested on: neutrophil migration across confluent HMECs; assay: LTB4 induced neutrophil migration across HMEC monolayers (transwell, MPO assay); assay type: cell-based, human; details: for effect on LTB4 induced neutrophil migration at 1 nM / effect on LTB4 induced neutrophil TEM at higher doses (100 nM): 1 h pretreatment, 100 nM LTB4; for effect on LTB4 induced neutrophil migration (dose response): 1 h pretreatment at 1-100 nM, 100 nM LTB4, 3 h migration
# Experimental: FIG. 6 graphically depicts protection against LTB4 induced PMN TEM with PMA up to 48 h after pretreatment. HMECs were pretreated for 1 h with PMA and washed with HBSS three times to remove PMA prior to replacement of culture medium. Neutrophil migration studies were then performed at 0, 24, or 48 hours. Migration was stimulated by adding 500,000 neutrophils to the top well and 100 nM LTB4 to the lower well at 0, 24, and 48 hours after PMA pretreatment. […] PMA (100 nM, (10^−7M) reduced LTB4 induced migration up to 48 hours after 1 h of endothelial-specific pretreatment (***p<0.001).
# Referring now to FIG. 7, FIG. 7 graphically depicts protection from LTB4 induced PMN TEM with Bryostatin-1 up to 48 hours after pretreatment. HMECs were pretreated for 1 h with Bryostatin-1 and washed with HBSS three times to remove Bryostatin-1 prior to replacement of culture medium. Neutrophil migration studies were then performed at 0, 24, or 48 hours. Migration was stimulated by adding 500,000 neutrophils to the top well and 100 nM LTB4 to the lower well at 0, 24, and 48 hours after Bryostatin-1 pretreatment. […] Bryostatin-1 (100 nM) reduced LTB4 induced migration up to 48 hours after 1-hour endothelial pretreatment (***p<0.001).
# Cell Culture: HMECs were a generous gift from Dr. Francisco Candal (Centers for Disease Control), and are derived from the subcutaneous microvasculature. HMECs were maintained in MCDB-131 supplemented with 10% FCS, 1% antibiotic antimycotic, 10 ng/ml EGF, and […] hydrocortisone. The cell cultures were incubated at 37° C. in a humidified atmosphere with 7.5% CO2 and expanded by brief trypsinization (0.25% trypsin in phosphate-buffered saline containing 0.02% EDTA). HMECs were seeded onto 8 μm inserts for migration assays and 48-well plates for endothelial viability studies. Human umbilical vein endothelial cells (HUVECs) were harvested from umbilical cords by 0.25% collagenase treatment for 20 min at 37° C. HUVECs were maintained in Endothelial Growth Medium (EGM) supplemented with Bovine Brain Extract. The cell cultures were incubated at 37° C. in a 100% humidified atmosphere with 5% C02 and expanded by brief trypsinization. Primary passage HUVEC were seeded onto fibronectin coated (25 μg/ml)8 μm inserts for migration assays and 48-well plates for endothelial viability studies. Culture medium was replaced every second day. Cells were identified as endothelial cells by their cobblestone appearance at confluency, positive labeling with acetylated low density lipoprotein labeled with 1,11-dioctadecyl-1 3,3,31,31,3-tetramethylindocarbocyanine perchlorate (Dil-Ac-LDL; Biomedical Technologies, Inc.) and mouse antihuman factor […] (Calbiochem, San Diego, Calif.).
# Neutrophil Isolation: Neutrophils were isolated using a Ficoll gradient. Whole blood was taken from human donors, and 5 ml was layered on top of two layers of Histopaque. Tubes were spun at 2,100 rpm for 40 min. The neutrophil layer was added to cold PBS and re-spun at 2,100 rpm for 5 min. Supernatant was removed and neutrophils were suspended in a fixed amount of PBS to determine cell count. Cells were kept on ice until assays were performed.
# […] Inserts were washed three times with Hank's Balanced Salt Solution (HBSS) (to eliminate drug effects on the neutrophils) and placed in a new plate containing either 500 μL 100 nM LTB4, or HBSS alone for control. 500 μL HBSS was then added to the top well and spiked with 500,000 neutrophils. For TNF-α experiments, HMECs were left in 20 ng/ml TNF-α in MCDB-131 for 24 h TNF-α was removed and HMECs washed three times. […] The drug was removed, and cells were washed three times. 500 μL HBSS was added to both upper and lower chambers and spiked with 500,000 neutrophils. Neutrophils were allowed to migrate for 3 h at 37° C. Migration was stopped by removing the inserts and migration was measured using the myeloperoxidase (MPO) assay.
# Myeloperoxidase Assay: Neutrophil migration was measured using myeloperoxidase (MPO) analysis. […]
# [2] = HTK-solution with 100 nM Bryostatin-1 during 20 h cold storage vs placebo
SMILES,serum/plasma and urinary inflammatory biomarkers (transplanted kidney; 100 nM Bryostatin-1 in HTK-solution),"kidney histology scores at 6 hours (transplanted kidney; 100 nM Bryostatin-1 in HTK-solution, 6 hours)",kidney ultrastructural damage scores (transplanted kidney; [2]),neutrophils entering the re-perfused kidney (transplanted kidney; [2]),effect on migration induced by TNF-α pretreatment plus LTB4 gradient (neutrophil migration),effect on LTB4 induced neutrophil migration at 1 nM [1],effect on LTB4 induced neutrophil TEM at higher doses (100 nM) [1],effect on LTB4 induced neutrophil migration (dose response) [1],"time after pretreatment for which reduction of LTB4 induced migration is maintained, HMECs ([1]; single 1 h 100 nM pretreatment, washed, tested at 0, 24, 48 h) [h]"
CCC/C=C/C=C/C(=O)O[C@H]1/C(=C/C(=O)OC)C[C@H]2C[C@H]([C@@H](C)O)OC(=O)C[C@H](O)C[C@@H]3C[C@H](OC(C)=O)C(C)(C)[C@](O)(C[C@@H]4C/C(=C/C(=O)OC)C[C@H](/C=C/C(C)(C)[C@]1(O)O2)O4)O3 [Bryostatin-1],not altered,significantly improved,significantly reduced,significantly prevented,reduced migration,did not reduce PMN TEM,attenuated neutrophil TEM to levels below that of basal migration,dose-dependently reduced; also recorded: reduced LTB4 induced migration in a dose dependent manner,48
"CCCCCCCCCCCCCC(=O)O[C@@H]1[C@@H](C)[C@@]2(O)[C@@H](C=C(CO)C[C@]3(O)C(=O)C(C)=C[C@@H]23)[C@@H]2C(C)(C)[C@]12OC(C)=O [PMA, phorbol myristate acetate]",–,–,–,–,reduced migration,did not reduce PMN TEM; also recorded: had no effect,attenuated neutrophil TEM to levels below that of basal migration,dose-dependently reduced; also recorded: reduced LTB4 induced migration in a dose dependent manner,–
